Reference: PMC11474028, “Lipopeptide antibiotics disrupt interactions of undecaprenyl phosphate with UptA” (Proceedings of the National Academy of Sciences of the …, 2024)

Key:
[1] = target: T1, UptA (Bacillus subtilis, UniProt O31823); experiment: Native MS of antibiotic binding to UptA; details: 2.5 µM UptA, 10 µM C55-P, antibiotic up to 100 µM (polymyxins 100 µM), 0.05% LDAO, 200 mM ammonium acetate, 75 V
Procedure: We next investigate how UptA and its complex with C55-P interact with a range of cell-wall targeting antibiotics including the lipopeptides daptomycin and amphomycin. […] We investigated whether daptomycin affects C55-P binding to UptA by recording spectra for solutions containing 2.5 µM UptA, 10 µM C55-P, and different concentrations of daptomycin.
(§1) Amphomycin and derivatives are known to kill bacteria by forming complexes with free C55-P ([46]), however, whether or not this involves a direct interaction with a protein cellular target is not known. We therefore investigated how amphomycin affects the UptA:C55-P complex. We recorded spectra for solutions containing 2.5 µM UptA, 10 µM C55-P and then equilibrated aliquots with increasing concentrations of amphomycin.
The amphiphilic nature of daptomycin and amphomycin raises the possibility that these lipopeptide antibiotics may promiscuously bind to UptA in a nonspecific manner. We probe this possibility by recording spectra for UptA:C55-P solutions in the presence of 100 µM polymyxin B and 100 µM polymyxin E. These polymyxins are membrane-disrupting lipopeptides that target the outer membrane lipopolysaccharides in Gram-negative bacteria ([47]) but without a known affinity for C55-P or UptA.
To this end, we prepared UptA:C55-P mixtures and then equilibrated aliquots with bacitracin and vancomycin.
(§2) Detailed experimental procedures are provided in SI Appendix. Briefly, UptA (wild type and mutants) was expressed in E. coli C43(DE3) cells (Lucigen) with GFP fusion on the C-terminus and solubilized from the membrane fraction by n-dodecyl-β-D-maltopyranoside (DDM). After purification by affinity chromatography, the GFP was cleaved by TEV protease and removed, and UptA was further purified by size-exclusion chromatography in a buffer containing 20 mM Tris-HCl (pH 8.0), 200 mM NaCl, 0.02% DDM. Before measurements, proteins were buffer-exchanged into 0.05% LDAO, 200 mM ammonium acetate at the desired pH using a centrifugal buffer exchange device (Micro Bio-Spin 6, Bio-Rad). Stock solutions of lipids were prepared from chloroform/methanol solution by evaporating aliquots of known volume in a SpeedVac. After drying, the lipid films were weighed and resuspended to a final concentration of 0.5 mM in 200 mM ammonium acetate and 0.05% LDAO by vertexing. Stock solutions of 0.5 mM amphomycin, aspartocin D, daptomycin, polymyxin B, polymyxin E, and bacitracin were made in the same buffer. All experiments were repeated three times from newly prepared stock solutions. Native mass spectrometry was performed on a Q-Exactive hybrid quadrupole-Orbitrap mass spectrometer (Thermo Fisher Scientific, Bremen, Germany), and lipid identification was performed on an Orbitrap Eclipse Tribrid mass spectrometer (Thermo). […]

[2] = tested on: UptA:C55-P complex; experiment: Native MS of UptA:C55-P complex in the presence of antibiotics; format: binding, Bacillus subtilis; details: 2.5 µM UptA, 10 µM C55-P, 0 to 100 µM antibiotic, 75 V; mean of three independent replicates
Procedure: as §1
(A) Mass spectra (6+ charge state) for solutions containing 2.5 µM UptA and 10 µM C55-P incubated with 0 to 100 µM amphomycin. (B) Relative intensity of C55-P bound to UptA in the presence of amphomycin and daptomycin. The bar represents the mean of three independent replicates shown as data points and error bars are SD. […] (C) Fraction of C55-P bound to UptA in the presence of cell wall targeting antibiotics. Each sample contains 2.5 µM UptA, 10 µM C55-P and 100 µM of indicated antibiotic, and spectra were acquired using the same instrument settings and collisional activation of 75 V. The bar represents the mean of three independent replicates shown as data points, and the error bar represents SD. […]
as §2

[3] = target: T1, UptA; experiment: biochemical; format: binding; details: for binding to UptA by lipid chain length (in words): 4 µM UptA, 10-fold molar excess (40 µM) of lipid, pH 8.0, 200 mM ammonium acetate, 0.05% LDAO
Procedure: We explored the binding affinity of UptA toward C55-P by recording mass spectra for solutions containing 2.5 µM UptA and 0 to 40 µM C55-P in 200 mM ammonium acetate, 0.05% LDAO at pH 8.0. […] Further increase in the concentration of C55-P enhanced the intensity of the UptA:C55-P complex, together with the emergence of additional binding events (Fig. 2A). We deconvoluted the spectra ([34]) to extract mean relative intensities of bound and unbound forms of UptA in the spectral series.
To investigate the binding selectivity of UptA for monophosphate (C55-P) versus diphosphate (C55-PP) forms of the lipid carrier, we performed comparative binding assays. First, we recorded mass spectra for a mixture of UptA with increasing concentrations of C55-PP (SI Appendix, Fig. S3). […] We then fit the data to Hill equation to obtain an apparent Kd for this system.
UptA is a member of the DedA family of transporters whose cellular functions are potentially driven by proton-motive force and provide conditional fitness to bacteria under alkaline conditions ([25], [26], [36]). […] To this end, we equilibrated C55-P with UptA at a protein/ligand molar ratio of 1:4 in a buffer of the same composition but at pH 8.0 and 5.0. […] As a negative control, we tested for pH sensitivity of C55-P binding to MraY, the latter being the downstream enzyme in the peptidoglycan pathway that couples UM5 to C55-P. To this end, we equilibrated MraY and C55-P at a molar ratio of 1:4 in a buffer of pH 8.0 and pH 5.0.
Next, we investigated the chain length selectivity of UptA by testing its interaction with geranylgeranyl phosphate (C20-P), hexaprenyl phosphate (C30-P), and C55-P; the latter representing the native form of the lipid carrier in the model organisms B. subtilis and E. coli ([39]). For this experiment, we incubated 4 µM UptA with a 10-fold molar excess of C20-P, C30-P, and C55-P at pH 8.0 and recorded spectra under the same conditions. […] The length and stereochemistry of lipid tails can influence their interactions with membrane proteins ([40]).
Detailed experimental procedures are provided in SI Appendix. Briefly, UptA (wild type and mutants) was expressed in E. coli C43(DE3) cells (Lucigen) with GFP fusion on the C-terminus and solubilized from the membrane fraction by n-dodecyl-β-D-maltopyranoside (DDM). After purification by affinity chromatography, the GFP was cleaved by TEV protease and removed, and UptA was further purified by size-exclusion chromatography in a buffer containing 20 mM Tris-HCl (pH 8.0), 200 mM NaCl, 0.02% DDM. Before measurements, proteins were buffer-exchanged into 0.05% LDAO, 200 mM ammonium acetate at the desired pH using a centrifugal buffer exchange device (Micro Bio-Spin 6, Bio-Rad). Stock solutions of lipids were prepared from chloroform/methanol solution by evaporating aliquots of known volume in a SpeedVac. After drying, the lipid films were weighed and resuspended to a final concentration of 0.5 mM in 200 mM ammonium acetate and 0.05% LDAO by vertexing.

[4] = target: T1, UptA; experiment: Native MS of phospholipid binding to UptA; details: for UptA-lipid complexes formed (stoichiometry, in words): 4 µM UptA with 10 µM lipid, native MS
Source text: Proteins belonging to the DedA family are a widespread family of transporters and are proposed to flip diverse lipids, including carrier lipids and membrane phospholipids. We therefore probed the interaction of UptA with membrane phospholipids to understand whether the latter could modulate its function. For this purpose, we selected anionic phosphatidylglycerols (PG) and zwitterionic phosphatidylethanolamines (PE), representing the major classes of phospholipid headgroups found in B. subtilis ([41], [42]). We recorded mass spectra of solutions containing 4 µM UptA incubated with 10 µM a15:0-i15:0 PE and 10 µM a15:0-i15:0 PG (a15:0, anteiso-pentadecanoic acid; i15:0, iso-pentadecanoic acid). The fatty acid composition of these lipids closely mimics those of native B. subtilis lipids (see below). The resulting spectra display peaks corresponding to UptA in apo and lipid-bound forms in both cases (Fig. 4 A and B). […] We therefore hypothesize that UptA interacts more favorably with PG than with PE.
To verify the lipid binding preference of UptA with more native-like lipids, we prepared lipid extracts from B. subtilis membranes (Materials and Methods). We then incubate an aliquot of the resulting crude lipids (SI Appendix, Fig. S8) with UptA. The spectra yielded peaks assigned to UptA in complex with cardiolipins (~1,326 Da) and a range of phospholipids, predominantly 694 Da, 721 Da, 748 Da, and 776 Da species (Fig. 4 D and E). To identify these lipids, we performed tandem MS/MS, isolating the lipid species and subjecting it to collisional activation. […] The fatty acid fragments are mixed populations, predominantly 15:0-15:0, 15:0-17:0, 16:0-16:0, and 16:0-18:1 (SI Appendix, Fig. S9) which are the typical fatty acids from B. subtilis membrane phospholipids ([42]). We therefore conclude that UptA interacts more favorably with the anionic cardiolipins and phosphatidylglycerols than with the zwitterionic phosphatidylethanolamines in the membrane lipid extracts.
as §2
Lipid extracts from B. Subtilis
B. subtilis strain 168 (ATCC 23857) was cultivated in […] LB media at 37 °C until OD600 nm 1.2 under aurobic conditions. Cells were harvested by centrifugation at 4,000 g for 20 minutes and resuspended in 20 mM Tris-HCl (pH 8.0), 150 mM NaCl. Cells were lysed by 5-6 passes through a microfluidizer at 20,000 psi. The lysates were clarified by centrifugation at 4,000 g for 10 minutes, and the totoal membrane was pelleted at 120,000 g for 1 h. The membrane pellet was ressupended […]

T1 sequence (O31823 whole entry): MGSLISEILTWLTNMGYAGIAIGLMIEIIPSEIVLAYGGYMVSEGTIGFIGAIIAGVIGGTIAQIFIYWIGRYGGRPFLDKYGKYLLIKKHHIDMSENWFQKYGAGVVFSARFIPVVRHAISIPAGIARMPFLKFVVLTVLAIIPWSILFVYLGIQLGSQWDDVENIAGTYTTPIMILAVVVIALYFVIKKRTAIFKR

polymyxin B
binding of antibiotic to UptA (in words) [1]: do not bind to UptA
effect of antibiotic on UptA:C55-P complex (in words) [2]: attenuation of C55-P binding to UptA (SI Appendix, Fig. S10), but this effect is less significant compared to the impact of amphomycin analogs

CC(C)=CCCC(C)=CCCC(C)=CCCC(C)=CCCC(C)=CCCC(C)=CCOP(=O)(O)O [C30-P, hexaprenyl phosphate]
binding to UptA by lipid chain length (in words) [3]: higher binding affinity of UptA to C30-P compared to C20-P

vancomycin
binding of antibiotic to UptA (in words) [1]: bind to UptA but with very low intensities
effect of antibiotic on UptA:C55-P complex (in words) [2]: no observable impact on C55-P binding

CC(C)=CCC/C(C)=C/CC/C(C)=C/CC/C(C)=C\CC/C(C)=C\CC/C(C)=C\CC/C(C)=C\CC/C(C)=C\CC/C(C)=C\CC/C(C)=C\CC/C(C)=C\COP(=O)(O)OP(=O)(O)O [C55-PP, undecaprenyl diphosphate]
selectivity of UptA for C55-P versus C55-PP (in words) ([3]; native MS, 200 mM ammonium acetate, pH 8, 0.05% LDAO): UptA bind C55-PP but with lesser intensities compared to C55-P
Kd ([3]; read-out: apparent Kd for the binding of one ligand molecule (1×) to UptA): 15.3 µM

CC[C@@H](C)CCCCCCCCCCC(=O)OC[C@H](COP(=O)([O-])OCC(O)CO)OC(=O)CCCCCCCCCCCC(C)C.[Na+] (stereo partly shown) [a15:0-i15:0 PG]
mean relative intensity of UptA in complex with phospholipid, comparison (in words) ([4]; 4 µM UptA with 10 µM lipid (stated for a15:0-i15:0 lipids), mean of three independent replicates): higher than for a15:0-i15:0 PE
UptA-lipid complexes formed (stoichiometry, in words) [4]: 1:1 and 1:2 protein-lipid complexes

CCC(C)CCCCCCCCCCC(=O)OC[C@H](COP(=O)(O)OCCN)OC(=O)CCCCCCCCCCCC(C)C (stereo partly shown) [a15:0-i15:0 PE]
UptA-lipid complexes formed (stoichiometry, in words) [4]: only a 1:1 complex

CC(C)=CCC/C(C)=C/CC/C(C)=C/CC/C(C)=C/COP(=O)(O)O [C20-P, geranylgeranyl phosphate]
binding to UptA by lipid chain length (in words) [3]: low-intensity peaks corresponding by mass to UptA:C20-P complexes, leaving most of the protein in the apo form

polymyxin E
binding of antibiotic to UptA (in words) [1]: do not bind to UptA
effect of antibiotic on UptA:C55-P complex (in words) [2]: attenuation of C55-P binding to UptA (SI Appendix, Fig. S10), but this effect is less significant compared to the impact of amphomycin analogs
